Results on two substances are retold here after article PMC13237374 (Communications Chemistry, 2026).

What all share (format): physicochemical
Series [1] can be described thus: Aβ42 ThT aggregation assay.
Experimental: It was incubated at different concentrations in the presence of 20 μM ThT quiescently at 37 °C in 96-well half-area non-binding plates (Corning 3881), with 100 μL per well and five replicate wells per concentration. An aluminum film coating minimized evaporation. The fluorescence emission of ThT at 480 nm upon excitation at 440 nm was monitored using a FLUOstar Omega plate-reader (BMG Labtech GmbH, Germany) using a cycle time of 300 s with 40 flashes per reading and 0.2 s settling time per cycle.
Series [2] in a line: Unseeded ThT aggregation kinetics of medin monomer. Particulars: for Primary nucleation order nc, fit result: unseeded assay fitted individually.
Experimental: After removing outliers manually, the resultant data from kinetic assays were normalized and analyzed using the online platform AmyloFit 2.0[46] made for global aggregation kinetic data-fitting. […] Half-times of unseeded aggregation assays were calculated in the AmyloFit 2.0 platform. For comparison of aggregation half-times of unseeded and low-seeded reactions, data were normalized and fitted using GraphPad Prism 2.0 with2 y=ymin+ymax−ymin/1+t1/2/t^c where y is the normalized ThT fluorescence and c is a constant. All data were fitted with the corresponding model using 50 basin hops to ensure convergence, and the fit with the least MSE was considered the best fit. Two models were used with the consideration of the presence or absence of seeds: secondary nucleation dominated[11] and fragmentation dominated mechanisms[45]. […] The average fibril length for pre-formed aggregate seeds was assumed to be 10,000 monomers[46].
A short description of series [3]: Critical concentration of medin aggregation from ThT amplitude. The note with it: half-maximal point of sigmoidal fit of ThT amplitude at 0–40 nM monomer; 20 µM ThT, pH 7.4, 37 °C, quiescent.
A short description of series [4]: Dynamic light scattering (DLS) of medin. The procedure:
Samples were withdrawn at different time intervals, and the particle size distribution was monitored at 20 °C in a Malvern Zetasizer Nano instrument (Malvern Instruments Limited, United Kingdom) at 70 µL volume (N = 3, n = 3). Two outliers were removed manually before data analysis.

Series [5] can be described thus: Salt (NaCl) titration of medin ThT aggregation kinetics. The note with it: [Medin] 75 nM, N = 1, n = 5. The method, then:
(§1) All assays were carried out at 37 °C in quiescent conditions at 100 µL sample volume per well in 96-well half-area non-binding plates (Corning 3881), with an aluminum film coating to minimize evaporation. […] ThT fluorescence emission at 480 nm, when excited at 440 nm, was monitored using a FLUOstar Omega plate-reader (BMG Labtech GmbH, Germany) using a cycle time of 180 s with 40 flashes per reading and 0.2 s settling time per cycle. The unseeded reactions were repeated thrice using three different batches of protein.
For salt titration experiments, 20 mM NaPi 1 M NaCl 0.2 mM EDTA pH 7.4 was diluted to the final reaction mixtures at final NaCl concentrations of 0, 40, 150, and 500 mM before incubation in replicate wells of a non-binding plate and monitoring of aggregation kinetics as described above.
(§2) After removing outliers manually, the resultant data from kinetic assays were normalized and analyzed using the online platform AmyloFit 2.0[46] made for global aggregation kinetic data-fitting. All data representations have been produced in GraphPad Prism 2.0. Half-times of unseeded aggregation assays were calculated in the AmyloFit 2.0 platform. For comparison of aggregation half-times of unseeded and low-seeded reactions, data were normalized and fitted using GraphPad Prism 2.0 with2 y=ymin+ymax−ymin/1+t1/2/t^c where y is the normalized ThT fluorescence and c is a constant. All data were fitted with the corresponding model using 50 basin hops to ensure convergence, and the fit with the least MSE was considered the best fit. Two models were used with the consideration of the presence or absence of seeds: secondary nucleation dominated[11] and fragmentation dominated mechanisms. […] The average fibril length for pre-formed aggregate seeds was assumed to be 10,000 monomers.

Series [6] in a line: Low-seeded (1% seed:monomer) ThT aggregation assay of medin.
Experimental: After removing outliers manually, the resultant data from kinetic assays were normalized and analyzed using the online platform AmyloFit 2.0[46] made for global aggregation kinetic data-fitting. […] Half-times of unseeded aggregation assays were calculated in the AmyloFit 2.0 platform. For comparison of aggregation half-times of unseeded and low-seeded reactions, data were normalized and fitted using GraphPad Prism 2.0 with2 y=ymin+ymax−ymin/1+t1/2/t^c where y is the normalized ThT fluorescence and c is a constant. […]
Series [7] is described as follows: Global kinetic fitting (AmyloFit 2.0) of unseeded, low-seeded and high-seeded medin ThT data. The method, then: as §2
A short description of series [8]: High-seeded (20–50% seed:total protein) ThT aggregation assay of medin. Particulars: for Elongation rate constant k+, fit result: high-seeded assay fitted individually. The method, then: as §1
Amyloid aggregation was monitored using 20 µM ThT in replicate wells. The overnight-grown fibrils were sonicated for 15 s at 50% duty cycle and 10% power using a microtip sonicator (Bandelin Sonopuls, Germany) to produce seeds for subsequent seeded aggregation assays.
as §2

The mark [9] stands for this setting: unseeded assays, N = 3, fragmentation dominated, no seed.
[10] abbreviates: unseeded assays, N = 3, secondary nucleation dominated, no seed.
[11] abbreviates: secondary nucleation dominated model.
The mark [12] stands for this setting: global data analysis, fragmentation dominated.
[13] abbreviates: global data analysis, secondary nucleation dominated.

“Aβ42: human amyloid-β 42 peptide, recombinantly produced, comparator amyloid”: in series [1] (20 mM NaPi 0.2 mM EDTA pH 7.4, 37 °C, quiescent, 20 µM ThT), the “concentrations at which no aggregation was observed within 24 hours” value was “below 117 nM”. Besides, the “aggregation half-time t1/2” value in series [1] ([…] Aβ42, pH 7.4, 37 °C) is on record as 1.9 h.

Take “medin: 50-residue peptide cleaved from lactadherin, forms aortic medial amyloid; produced recombinantly in E. coli”: the “aggregation of 10 nM medin monomer” value in series [2] (10 nM monomer, over 16 h, ThT) is recorded as “no aggregation”. In addition, the “lowest concentration at which amyloid fibrils form spontaneously” value in series [2] (physiological pH and temperature, quiescent solution) was determined as 25 nM. Moreover, the “Primary nucleation order nc, fit result” value in series [2] (fragmentation dominated, no seed) is ~ 1; in series [2] (secondary nucleation dominated, no seed), ~ 1; in series [7] (setting [12]), ~ 1; in series [7] (setting [13]) it was ~ 1. Also, the “primary nucleation reaction order nc” value in series [2] (unseeded assay, secondary nucleation- or fragmentation-dominated spontaneous aggregation model) is ~ 1; in series [7] (global analysis of all assays) it was approximately 1. The “Combined rate constant k+kn, average value” in series [2] (setting [9]) is reported as 7.3 M-1s-2; in series [2] (unseeded assays, biological replicates N = 3 (different batches), secondary nucleation dominated, no seed), 0.1 M-1s-2. Further, in series [2] (setting [9]), the “Combined rate constant k+k−, average value” was 1.7 M-1s-2. In addition, the “Primary nucleation reaction order nc, average value” is 1.4 in series [2] (setting [9]) and ~ 1 in series [2] (setting [10]). In addition, in series [2] (setting [10]), the “Combined rate constant k+k2, average value” is reported as 22.3 M-1s-2. For the same substance, the “Secondary nucleation reaction order n2, average value” in series [2] (setting [10]) is given as ~ 0. Also, the “critical concentration of medin aggregation” value in series [3] was ~ 14 nM. Also, the “hydrodynamic diameter of aggregates” value in series [4] (10 µM medin after quiescent incubation at pH 7.4 and 37 °C, DLS) was 200–3200 nm. The “incubation time until first traces of higher molecular weight species” value in series [4] (10 µM medin monomer on ice, DLS) is “at least 1.5 hours”. The “hydrodynamic diameters of monomeric and initial oligomeric species” value in series [4] (10 µM medin, DLS at 20 °C, N = 3, n = 3) is recorded as 0.4–6 nm. The mean hydrodynamic diameter in series [4] (purely monomeric medin, 10 µM in aggregation assay buffer, freshly eluted) is given as 0.67 nm. The “Mean t1/2” value came to 3.2 h in series [5] ([NaCl] 0 mM), 2.4 h in series [5] ([NaCl] 40 mM), 2.5 h in series [5] ([NaCl] 150 mM) and 2.4 h in series [5] ([NaCl] 500 mM). Further, in series [6] (50–[…] monomer, pH 7.4, 37 °C, 20 µM ThT), the “rate constant of the monomer-independent secondary pathway (k2 or k−)” value stood at 4e-08 s⁻¹. In addition, in series [6] (setting [11]), the “secondary nucleation reaction order n2” value is listed as ~ 0. Besides, in series [7] (global analysis of unseeded, low-seeded and high-seeded data, saturated secondary nucleation (n2 = 0) or fragmentation model), the “primary nucleation rate constant kn” value worked out at 1e-08 s⁻¹. The “Elongation rate constant k+, fit result” value in series [7] (setting [12]) came to 9.53e+06 M⁻¹ s⁻¹; in series [7] (setting [13]) it was 9.46e+06 M⁻¹ s⁻¹; in series [8] (fragmentation dominated model), 5.4e+07 M⁻¹ s⁻¹; in series [8] (setting [11]), 5.34e+07 M⁻¹ s⁻¹. Moreover, the results for the “Primary nucleation rate constant kn, fit result” value in series [7] (setting [12]) and in series [7] (setting [13]) were 1.15e-08 s⁻¹ and 1.13e-08 s⁻¹, respectively. Further, the “Secondary pathway rate constant k−, fit result” value in series [7] (setting [12]) was found to be 3.14e-07 s⁻¹. Further, in series [7] (setting [13]), the “Secondary nucleation order n2, fit result” value is on record as ~ 0. Further, the “Secondary pathway rate constant k2, fit result” value in series [7] (setting [13]) came to 3.23e-07 s⁻¹. For the same substance, the elongation rate constant in series [8] (as printed in the Introduction, physiological pH and temperature in vitro) is reported as ~ 10^7 s^−1. In series [8] (high-seeded: 187.5–500 nM monomer + 187.5 nM pre-formed fibrils (20–50% seed:total protein), pH 7.4, 37 °C, quiescent, 20 µM ThT, AmyloFit fit of first phase), the “elongation rate constant k+” value is 5e+07 M⁻¹ s⁻¹.
